For orientation: IC50 means the concentration needed to halve the response being measured.

The source of these data is patent US8129401B2, “Heterocyclic compounds useful for the treatment of inflammatory and allergic disorders: process for their preparation and pharmaceutical compositions containing them” (Glenmark Pharmaceuticals S.A., priority 2004, dated 2012).

Structures can show the parent of a compound that is named as a salt.

In the first assay the test system is PDE4 enzyme. Put plainly: Inhibition of phosphodiesterase enzymes (PDE4), [3H]cAMP hydrolysis assay. Type of assay: biochemical. As to conditions: PDE4 inhibition at 1 μM compound.
As for `COc1ccc(C(=O)Nc2c(Cl)cncc2Cl)c2c3c(sc12)CNCC3` [Example 08, N5 (3,5-dichloro-4-pyridyl)-8-methoxy-1,2,3,4-tetrahydrobenzo[4,5]thieno[2,3-c]pyridine-5-carboxamide hydrochloride], the “percent inhibition at 1 μM” value is on record as 31.75% at 1 μM. The same measure, in the same setting: then `COc1ccc(C(=O)Nc2c(Cl)cncc2Cl)c2c3c(n(C)c12)CCN(C(=O)OC(C)(C)C)C3` [Example 10, tert-butyl 9-(3,5-dichloro-4-pyridylcarbamoyl)-6-methoxy-5-methyl-1,3,4,5-tetrahydro-1H-pyrido[4,3-b]indole-2-carboxylate], with 27.74% at 1 μM. Take `COc1ccc(C(=O)Nc2c(Cl)cncc2Cl)c2c3c(n(CC4CC4)c12)CCN(C(=O)OC(C)(C)C)C3` [Example 12, tert-butyl 9-(3,5-dichloro-4-pyridylcarbamoyl)-6-methoxy-5-cyclopropylmethyl-1,3,4,5-tetrahydro-1H-pyrido[4,3-b]indole-2-carboxylate]: the “percent inhibition at 1 μM” value worked out at 48.79% at 1 μM.

Turning to `COc1ccc(C(=O)Nc2c(Cl)cncc2Cl)c2c3c(n(C)c12)CCN(C)C3` [Example 15, N9-(3,5-dichloro-4-pyridylcarbamoyl)-6-methoxy-2,5-methyl-1,3,4,5-tetrahydro-1H-pyrido[4,3-b]indole], the “percent inhibition at 1 μM” value is recorded as 12.90% at 1 μM. The same measure, in the same setting: the value for `COc1ccc(C(=O)Nc2ccncc2)c2c3c(n(C)c12)CCN(C(=O)OC(C)(C)C)C3` [Example 17, tert-butyl 9-(4-pyridinylcarbamoyl)-6-methoxy-5-methyl-1,3,4,5-tetrahydro-1H-pyrido[4,3-b]indole-2-carboxylate] was 33.67% at 1 μM. Same read-out and setting: then `COc1ccc(C(=O)Nc2c(Cl)cncc2Cl)c2c3c(n(C)c12)C(=O)N(C)CC3` [Example 22, N-(3,5-dichloropyridin-4-yl)-2,9-dimethyl-8-methoxy-1-oxo-1,2,3,4-tetrahydro-β-carboline-5-carboxamide], with 34.54% at 1 μM; and “N9-(3,5-dichloro-4-pyridylcarbamoyl)-6-methoxy-5-methyl-1,3,4,5-tetrahydro-1H-pyrido[4,3-b]indole hydrochloride [Example 13]”, with 20.99% at 1 μM.

The assay is the same for the next values; noted with them: PDE4 inhibition, 1 μM cAMP, 34° C.
`COc1ccc(C(=O)Nc2c(Cl)cncc2Cl)c2c1oc1cnncc12` [Example 01, N9-(3,5-dichloro-4-pyridyl)-6-methoxybenzo[4,5]furo[2,3-d]pyridazine-9-carboxamide]: the IC50 was determined as 1.38 nM. `COc1ccc(C(=O)Nc2c(Cl)cncc2Cl)c2c1oc1cncnc12` [Example 02, N9-(3,5-dichloro-4-pyridyl)-6-methoxybenzo[4,5]furo[3,2-d]pyrimidine-9-carboxamide] had an IC50 of 494 nM. Turning to `COc1ccc(C(=O)Nc2c(Cl)cncc2Cl)c2c1oc1ccncc12` [Example 03, N9-(3,5-dichloro-4-pyridyl)-6-methoxybenzo[4,5]furo[3,2-c]pyridine-9-carboxamide], the 50% inhibitory concentration (IC50) came out at 0.73 nM.

In turn, `O=C(Nc1c(Cl)cncc1Cl)c1ccc(OC(F)F)c2oc3cnncc3c12` [Example 04, N9-(3,5-dichloro-4-pyridyl)-6-difluoromethoxybenzo[4,5]furo[2,3-d]pyridazine-9-carboxamide] returned an IC50 of 3.41 nM. Still for that read-out and setting: then `COc1ccc(C(=O)Nc2c(Cl)cncc2Cl)c2c3c(sc12)CN(C(=O)OC(C)(C)C)CC3` [Example 07, tert-butyl 5-(3,5-dichloro-4-pyridylcarbamoyl)-8-methoxy-1,2,3,4-tetrahydrobenzo[4,5]thieno[2,3-c]pyridine-2-carboxylate], with 416 nM. On the same count and under the same terms, then `COc1ccc(C(=O)Nc2c(Cl)cncc2Cl)c2c3c(n(Cc4ccccc4)c12)CCN(C(=O)OC(C)(C)C)C3` [Example 11, tert-butyl 9-(3,5-dichloro-4-pyridylcarbamoyl)-6-methoxy-5-benzyl-1,3,4,5-tetrahydro-1H-pyrido[4,3-b]indole-2-carboxylate], with 177 nM. The molecule `COc1ccc(C(=O)Nc2c(Cl)cncc2Cl)c2c3c(n(Cc4ccccc4)c12)CCNC3` [Example 14, N9-(3,5-dichloro-4-pyridylcarbamoyl)-6-methoxy-5-benzyl-1,3,4,5-tetrahydro-1H-pyrido[4,3-b]indole hydrochloride] showed an IC50 of 3530 nM.

`COc1ccc(C(=O)Nc2c(Cl)cncc2Cl)c2c3c(n(Cc4ccccc4)c12)CCN(C)C3` [Example 16, N9-(3,5-dichloro-4-pyridylcarbamoyl)-6-methoxy-2-methyl-5-benzyl-1,3,4,5-tetrahydro-1H-pyrido[4,3-b]indole] gave a half-inhibitory concentration (IC50) of 2280 nM. Same read-out and setting: then `CCOC(=O)N1CCc2c(oc3c(OC)ccc(C(=O)Nc4c(Cl)cncc4Cl)c23)C1` [Example 19, N-(3,5-dichloropyridin-4-yl)-2-(ethoxycarbonyl)-8-methoxy-1,2,3,4-tetrahydro[1]benzofuro[2,3-c]pyridine-5-carboxamide], with 7.53 nM; and `COc1ccc(C(=O)Nc2c(Cl)cncc2Cl)c2c3c(oc12)CNCC3` [Example 20, N-(3,5-dichloropyridin-4-yl)-8-methoxy-1,2,3,4-tetrahydro[1]benzofuro[2,3-c]pyridine-5-carboxamide hydrochloride], with 17.4 nM. Same read-out and setting: the value for `COc1ccc(C(=O)Nc2c(Cl)cncc2Cl)c2c3c(oc12)CCNC3` [Example 21, N-(3,5-dichloropyridin-4-yl)-6-methoxy-1,2,3,4-tetrahydro[1]benzofuro[3,2-c]pyridine-9-carboxamide hydrochloride] was 20.4 nM. `O=C(Nc1c(Cl)cncc1Cl)c1ccc(OC(F)F)c2oc3ccncc3c12` [Example 23, N9-(3,5-dichloro-4-pyridyl)-6-difluoromethoxybenzo[4,5]furo[3,2-c]pyridine-9-carboxamide] had an IC50 of 0.25 nM. On the same count and under the same terms, then `O=C(Nc1c(Cl)c[n+]([O-])cc1Cl)c1ccc(OC(F)F)c2oc3cnncc3c12` [Example 25, 3,5-dichloro-4-(6-difluoromethoxybenzo[4,5]furo[2,3-d]pyridazine-9-ylcarboxamido)-1-pyridiniumolate], with 3.99 nM; and `O=C(Nc1c(Cl)c[n+]([O-])cc1Cl)c1ccc(OC(F)F)c2oc3ccncc3c12` [Example 26, 3,5-dichloro-4-(6-difluoromethoxybenzo[4,5]furo[3,2-c]pyridin-9-ylcarboxamido)-1-pyridiniumolate], with 2.69 nM.

`O=C(Nc1c(Cl)c[n+]([O-])cc1Cl)c1ccc(OC(F)F)c2oc3ccncc3c12` [Example 27, 3,5-dichloro-4-(6-difluoromethoxybenzo[4,5]furo[3,2-c]pyridin-9-ylcarboxamido)-1-pyridiniumolate sodium] yielded a half-inhibitory concentration (IC50) of 2.42 nM.

Staying with this assay, now noted: PDE4 inhibition, 1 μM cAMP, 34° C.; sodium.
The molecule `O=C(Nc1c(Cl)cncc1Cl)c1ccc(OC(F)F)c2oc3ccncc3c12` [Example 24, N9-(3,5-dichloro-4-pyridyl)-6-difluoromethoxybenzo[4,5]furo[3,2-c]pyridine-9-carboxamide sodium] returned a 50% inhibitory concentration (IC50) of 0.02 nM.

Still in this assay, the particulars now being: PDE4 inhibition, 1 μM cAMP, 34° C.; sodium salt.
`O=C(Nc1c(Cl)cncc1Cl)c1ccc(OC(F)F)c2oc3cnncc3c12` [Example 05, N9-(3,5-dichloro-4-pyridyl)-6-difluoromethoxybenzo[4,5]furo[2,3-d]pyridazine-9-carboxamide sodium salt]: the IC50 was 4.15 nM. On the same count and under the same terms, the value for `COc1ccc(C(=O)Nc2c(Cl)cncc2Cl)c2c1oc1cnncc12` [Example 18, N9-(3,5-dichloro-4-pyridyl)-6-methoxybenzo[4,5]furo[2,3-d]pyridazine-9-carboxamide sodium salt] was 4.08 nM.
